Test system: isolated rat atrial strip
Assay: Isolated atrial strip model of metabolic stress induced atrial conduction slowing
Details: rat left atrial strip; 40 min glucose-free, non-oxygenated buffer; control decreased by 22%
Experimental: Peptides suitable for administration to cardiac cells can be identified in an in vitro model as described by Haugan et al. (J. Cardiovasc. Electrophysiol., 16, 537-545 (2005)).
Rats (300-400 g) are killed by a sharp blow on the neck. The heart is rapidly excised and transferred to a small dish containing 37° oxygenated modified Tyrodes buffer containing (in mM): NaCl 136, KCl 4, MgCl2 0.8, CaCl2 1.8 HEPES 5, MES 5, Glucose 6, pH 7.3. The left atrium is carefully dissected and a tissue sample of approximately 2×6 mm is taken from the left atrial appendage and placed in a tissue chamber (volume 5 ml), (Steiert Organ Bath, Hugo Sach Electronic, Germany). The chamber is perfused throughout the study with 37° C. oxygenated Tyrodes buffer at a rate of 10 ml/min.
A bipolar stimulation electrode (Teflon coated stainless steel, diameter […]) is placed at one end of the tissue. Stimulation is performed at 1 Hz using rectangular pulses at double threshold (duration of stimulus 0.2 ms) delivered by a stimulator (Hugo Sachs, Type 215) through an isolation unit (Universal Isolated Stimulator Unit type 263, Hugo Sachs, Germany).
Two separate microelectrodes of pure iridium (World Precision Instruments, tip-impedance 3.5-4.0 MΩ) are placed on a line along the long-axis of the preparation for recording of atrial CV. […]

Compound: NCC(=O)N1C[C@H](NC(=O)c2ccccc2)C[C@H]1C(=O)O [Compound 2, (2S4R)1-(2-Amino-acetyl)-4-benzoylamino-pyrrolidine-2-carboxylic acid]
- atrial conduction velocity change compared to baseline: did not change compared to baseline
